Reference: US5942248A, “Pharmaceutical composition containing a low detergent effect bile salt and an active compound that undergoes biliary excretion and/or enterohepatic recycling” (priority 1992, dated 1999)
Like-named read-outs stand apart in the source and are kept apart here.

Key:
[1] = pH 7.3 buffer, 37° C.; cited from earlier work
[2] = cited from earlier work
patients = details: chronic active hepatitis, primary biliary cirrhosis, cystic fibrosis; cited from earlier work
[3] = tested on: subjects receiving gallstone dissolution therapy; details: rather than chenodeoxycholate; cited from earlier work
[4] = tested on: isolated perfused rat liver; details: cited from earlier work
[5] = aqueous solution; cited from earlier work
human erythrocytes = details: cited from earlier work
[6] = tested on: isolated human hepatocytes; details: cited from earlier work
rats = details: induced by more detergent dihydroxy and trihydroxy bile acids; cited from earlier work
[7] = tested on: heart transplant patients; details: cyclosporine-induced cholestasis; cited from earlier work
[8] = tested on: mono-layer cultures of isolated rat hepatocytes; details: cited from earlier work
[9] = tested on: isolated perfused rat liver; details: cited from earlier work; remark: listed apart in the source
gastrointestinal mucosa = details: in vivo; cited from earlier work
[10] = cited from earlier work; remark: listed apart in the source
[11] = cited from earlier work; remark: listed apart in the source
[12] = Stability of indomethacin in stored plasma samples; format: physicochemical; details: -20° C.
Method: The medication was taken with approx. 250 ml of boiled tap water. The zero time blood samples were taken within a 5 min period preceding the administration of the medication. Subsequent samples were taken at 0.5, 1.0, 1.5, 2.0, 2.5, 3.0, 4.0, 6.0, 8.0, 10.0 and 12.0 h. Blood samples were collected into lithium heparin tubes, gently mixed and centrifuged at 2.0×10^3 g.min within 15min of collection. Separated plasma was transferred into a clean tube and stored at -20° C. After a one week interval, the subjects received the alternative medication and the blood sampling protocol was repeated. Plasma samples were analysed by the HPLC method described by S. K. Cole et al (1992) Int. J. Pharm. 80, 63-73.

Q: With `CCCCC1C(=O)N(c2ccccc2)N(c2ccccc2)C1=O` [phenylbutazone] as the compound, how does the “dissolution in presence of sodium deoxycholate and sodium cholate” value [1] read?
A: enhance the dissolution

Q: For `CCC(Cc1c(I)cc(I)c(N)c1I)C(=O)O` (centres unmarked) [iopanoic acid], which “biliary excretion with exogenously added bile acids” value ([2]; in vivo) is on record?
A: increased the biliary excretion

Q: Which results are given for `C[C@H](CCC(=O)O)[C@H]1CC[C@H]2[C@@H]3[C@@H](O)C[C@@H]4C[C@H](O)CC[C@]4(C)[C@H]3CC[C@]12C` [ursodeoxycholate, Ursodeoxycholate]?
A: measures of hepatic damage (patients): reverse measures of hepatic damage; gastrointestinal side-effects [3]: decreased incidence of gastrointestinal side-effects; hepatic enzyme levels in plasma [3]: lower hepatic intracellar enzyme levels; detergent effect in isolated perfused rat liver [4]: lack of detergent effect; CMC [5]: 1 to 3 mM; prevention of toxicological effects of more detergent bile acids (human erythrocytes): prevent the toxicological effects of more detergent bile acids; detergent effect in isolated human hepatocytes [6]: lack of detergent effect; biliary excretion of membrane enzymes (rats): reduces the biliary excretion of membrane enzymes; plasma levels of liver enzymes and bilirubin [7]: reverse the elevated plasma levels of liver enzymes and bilirubin; prevention of toxicological effects of more detergent bile acids [8]: prevent the toxicological effects of more detergent bile acids; reversal of drug-induced cholestasis ([9]; caused by estradiol-17-β-D-glaucaronide and chlorpromazine): reverse drug-induced cholestasis

Q: For `O=C1OC(c2ccc(O)c(S(=O)(=O)O)c2)(c2ccc(O)c(S(=O)(=O)O)c2)c2c(Br)c(Br)c(Br)c(Br)c21` [bromosulphthalein], which “biliary excretion with exogenously added bile acids” value ([2]; variety of animal species) is on record?
A: increased the biliary excretion

Q: Which “biliary excretion with exogenously added bile acids” value ([2]; variety of animal species) does the source give for `CC1(C)C(/C=C/C=C/C=C/C=C2\N(CCCCS(=O)(=O)O)c3ccc4ccccc4c3C2(C)C)=[N+](CCCCS(=O)(=O)[O-])c2ccc3ccccc3c21` [indocyamine green] here?
A: increased the biliary excretion

Q: With `CN(C)CCCN1c2ccccc2Sc2ccc(Cl)cc21` [chlorpromiazine] as the compound, how does the cholestasis caused [9] read?
A: drug-induced cholestasis

Q: For `CN1C(C(=O)Nc2ccccn2)=C(O)c2ccccc2S1(=O)=O` [piroxicam], which “gastrointestinal bleeding / lesions” value (gastrointestinal mucosa) is on record?
A: gastrointestinal bleeding

Q: For `C[C@]12CC[C@@H]3c4ccc(O)cc4CC[C@H]3[C@@H]1CC[C@@H]2O[C@@H]1O[C@H](C(=O)O)[C@@H](O)[C@H](O)[C@H]1O` [estradiol-17-β-D-glucaronide], which cholestasis caused [9] is on record?
A: drug-induced cholestasis

Q: With `CC1(C)S[C@@H]2[C@H](NC(=O)[C@H](N)c3ccccc3)C(=O)N2[C@H]1C(=O)O` [ampicillin] as the compound, how does the “biliary excretion with exogenously added bile acids” value ([2]; variety of animal species) read?
A: increased the biliary excretion

Q: Which “gastrointestinal bleeding / lesions” value (gastrointestinal mucosa) does the source give for `CC(=O)Oc1ccccc1C(=O)O` [aspirin] here?
A: gastrointestinal bleeding

Q: Which “biliary clearance / enterohepatic circulation (in words)” value ([10]; in vivo) does the source give for `COc1ccc2c(c1)c(CC(=O)O)c(C)n2C(=O)c1ccc(Cl)cc1` [indomethacin] here?
A: Extensive clearance of intact indomethacin into the bile

Q: What about the plasma clearance ([10]; in vivo) of the same compound?
A: low plasma clearance

Q: And the plasma half-life ([10]; in vivo)?
A: short plasma half-life

Q: What about the route of excretion ([10]; in vivo) of the same compound?
A: mainly excreted via the hepato-biliaryroute

Q: And the volume distribution ([10]; in vivo)?
A: low volume distribution

Q: What about the “extent of enterohepatic recycling” value ([10]; man and animals) of the same compound?
A: 21-41%

Q: And the “absorption rate in vivo with bile acids” value [11]?
A: did not translate into an enhanced absorption rate in vivo

Q: And the “bioavailability with exogenously added bile acids” value ([11]; in vivo)?
A: increased the bioavailability of indomethacin

Q: What about the “inter-subject variation with exogenously added bile acids” value ([11]; in vivo) of the same compound?
A: decreasing inter-subject variation

Q: And the “dissolution in presence of sodium deoxycholate and sodium cholate” value [1]?
A: enhance the dissolution

Q: And the “degradation of indomethacin in stored plasma” value [12]?
A: No degradation of indomethacin was detected

Q: With `C=CC1=C(C)/C(=C/c2[nH]c(Cc3[nH]c(/C=C4\NC(=O)C(C)=C4C=C)c(C)c3CCC(=O)O)c(CCC(=O)O)c2C)NC1=O` [bilirubin] as the compound, how does the “biliary excretion with exogenously added bile acids” value ([2]; in vivo) read?
A: increased the biliary excretion
